13 compounds from patent publication US10138238B2, “Pesticidally active polycyclic derivatives with sulfur containing substituents” (Syngenta Participations AG, priority 2015, dated 2018) can be followed below.

Structures are written as SMILES.

Common to all, as to assay type: in vivo
Assay [1] concerns Diabrotica balteata (Corn Root Worm). Put plainly: Example B2: Diabrotica balteata, maize sprouts, L2 larvae. Conditions: 96 h, application rate of 200 ppm, 4 days after infestation, read-out: effect in at least one of the two categories (mortality or growth inhibition). The method, then: (§1) Maize sprouts placed onto an agar layer in 24-well microtiter plates were treated with aqueous test solutions prepared from 10'000 ppm DMSO stock solutions by spraying. After drying, the plates were infested with L2 larvae (6 to 10 per well). The samples were assessed for mortality and growth inhibition in comparison to untreated samples 4 days after infestation. The following compounds gave an effect of at least 80% in at least one of the two categories (mortality or growth inhibition) at an application rate of 200 ppm: P1, P2, P3, P4, P5, P6, P7, P8, P9, P10, P11, P12, P13, P14, and P15.

The subject of assay [2] is Euschistus heros (Neotropical Brown Stink Bug). Put plainly: Example B3: Euschistus heros, soybean leaves, N2 nymphs. As to conditions: 120 h, application rate of 200 ppm, 5 days after infestation, read-out: effect in at least one of the two categories (mortality or growth inhibition). The protocol:
Soybean leaves on agar in 24-well microtiter plates were sprayed with aqueous test solutions prepared from 10'000 ppm DMSO stock solutions. After drying the leaves were infested with N2 nymphs. The samples were assessed for mortality and growth inhibition in comparison to untreated samples 5 days after infestation. The following compounds gave an effect of at least 80% in at least one of the two categories (mortality or growth inhibition) at an application rate of 200 ppm: • P1, P3, P8, P9, P10, P13, P14, and P15

Assay [3] has as its system Plutella xylostella (Diamond Back Moth). Put plainly: Example B6: Plutella xylostella, artificial diet, L2 larvae. Conditions: 120 h, application rate of 200 ppm, 5 days after infestation, read-out: effect in at least one of the two categories (mortality or growth inhibition). The method, then:
(§2) 24-well microtiter plates with artificial diet were treated with aqueous test solutions prepared from 10'000 ppm DMSO stock solutions by pipetting. After drying, the plates were infested with L2 larvae (10 to 15 per well). The samples were assessed for mortality and growth inhibition in comparison to untreated samples 5 days after infestation. The following compounds gave an effect of at least 80% in at least one of the two categories (mortality or growth inhibition) at an application rate of 200 ppm: P1, P2, P3, P4, P6, P8, P9, P10, P11, P12, P13, P14 and P15.

For assay [4], the system named is Spodoptera littoralis (Egyptian Cotton Leaf Worm). Put plainly: Example B7: Spodoptera littoralis, cotton leaf discs, L1 larvae. Conditions: foliar, 72 h, application rate of 200 ppm, 3 days after infestation. The protocol:
(§3) Cotton leaf discs were placed onto agar in 24-well microtiter plates and sprayed with aqueous test solutions prepared from 10'000 ppm DMSO stock solutions. After drying the leaf discs were infested with five L1 larvae. The samples were assessed for mortality, anti-feeding effect, and growth inhibition in comparison to untreated samples 3 days after infestation. Control of Spodoptera littoralis by a test sample is given when at least one of the categories mortality, anti-feedant effect, and growth inhibition is higher than the untreated sample.

Assay [5] concerns Diabrotica balteata (Corn Root Worm). Put plainly: Example B13: Breakpoint (BP80) against Diabrotica balteata. Conditions: lowest concentration which gives 80% larval mortality; larval feeding/contact. The protocol: as §1
(§4) Insecticidal action against Diabrotica balteata (Corn root worm), Plutella xylostella (Diamond black moth), and Spodoptera littoralis (Egyptian cotton leaf worm). The tests were carried out as described in biological examples B2, B6 and B7, respectively, with the larval feeding/contact activity being reported as Breakpoint (BP80) values in parts per million (i.e. the lowest concentration which gives 80% larval mortality).

For assay [6], the system named is Plutella xylostella (Diamond black moth). Put plainly: Example B13: Breakpoint (BP80) against Plutella xylostella. As to conditions: lowest concentration which gives 80% larval mortality; larval feeding/contact. The method, then: as §2, §4
Assay [7] has as its system Spodoptera littoralis (Egyptian Cotton Leaf Worm). Put plainly: Example B13: Breakpoint (BP80) against Spodoptera littoralis. As to conditions: lowest concentration which gives 80% larval mortality; larval feeding/contact. The protocol:
as §3, §4

In assay [8] the test system is Diabrotica balteata (Corn Root Worm). Put plainly: Example B14: Breakpoint (BP80) against Diabrotica balteata. Conditions: lowest concentration which gives 80% larval mortality; Table B14. The method, then:
as §1
Insecticidal action against Diabrotica balteata (Corn root worm). The test were carried out as described in biological example B6 with the larval feeding contact activity being reported as Breakpoint (BP80) values in parts per million (i.e. the lowest concentration which gives 80% larval mortality).

Assay [9] relates to Bemisia tabaci (Cotton White Fly). Put plainly: Example B1: Bemisia tabaci feeding/contact activity. Conditions: 144 h, application rate of 200 ppm, adult white flies, 6 days after incubation. The method, then: Cotton leaf discs were placed on agar in 24-well microtiter plates and sprayed with aqueous test solutions prepared from 10'000 ppm DMSO stock solutions. After drying the leaf discs were infested with adult white flies. The samples were checked for mortality 6 days after incubation.

Assay [10] concerns Myzus persicae (Green Peach Aphid). Put plainly: Example B4: Myzus persicae feeding/contact activity. As to conditions: 144 h, application rate of 200 ppm, 6 days after infestation. The method, then:
Sunflower leaf discs were placed onto agar in a 24-well microtiter plate and sprayed with aqueous test solutions prepared from 10'000 ppm DMSO stock solutions. After drying, the leaf discs were infested with an aphid population of mixed ages. The samples were assessed for mortality 6 days after infestation.

Assay [11] concerns Spodoptera littoralis (Egyptian Cotton Leaf Worm). Put plainly: Example B8: Spodoptera littoralis systemic activity. As to conditions: 144 h, test rate of 12.5 ppm, lettuce, 6 days after infestation, read-out: effect in at least one of the three categories (mortality, anti-feeding, or growth inhibition). From the text:
Test compounds were applied by pipette from 10'000 ppm DMSO stock solutions into 24-well plates and mixed with agar. Lettuce seeds were placed onto the agar and the multi well plate was closed by another plate which contained also agar. After 7 days the compound was absorbed by the roots and the lettuce grew into the lid plate. The lettuce leaves were then cut off into the lid plate. Spodoptera eggs were pipetted through a plastic stencil onto a humid gel blotting paper and the lid plate was closed with it. The samples were assessed for mortality, anti-feedant effect and growth inhibition in comparison to untreated samples 6 days after infestation. The following compounds gave an effect of at least 80% in at least one of the three categories (mortality, anti-feeding, or growth inhibition) at a test rate of 12.5 ppm: • P10, P13, P14 and P15.

As for `CCS(=O)(=O)c1ccc(-c2ccc(Cl)cc2)nc1-c1nc2cc(C(F)(F)F)ncc2n1C` [Compound P1, 2-[6-(4-chlorophenyl)-3-ethylsulfonyl-2-pyridyl]-3-methyl-6-(trifluoromethyl)imidazo[4,5-c]pyridine], the percent effect (mortality or growth inhibition) at 200 ppm in assay [1], in [2] and in [3] was not below 80% in each case. In assay [4], this compound had a percent control (mortality, anti-feedant effect or growth inhibition) at 200 ppm not below 80%. In addition, the “BP80 Values Diabrotica balteata” value in assay [5] was found to be 3 ppm. Also, in assay [6], the “BP80 Values Plutella xylostella” value is reported as 12 ppm. The “BP80 Values Spodoptera littoralis” value in assay [7] amounted to 12 ppm.

For `CCS(=O)(=O)c1ccc(/C=C/c2ccccc2C(F)(F)F)nc1-c1nc2cc(C(F)(F)F)ncc2n1C` [Compound P2, 2-[3-ethylsulfonyl-6-[(E)-2-[2-(trifluoromethyl)phenyl]vinyl]-2-pyridyl]-3-methyl-6-(trifluoromethyl)imidazo[4,5-c]pyridine], the percent effect (mortality or growth inhibition) at 200 ppm in assay [1] and in assay [3] was not below 80% throughout. This compound also returned a percent control (mortality, anti-feedant effect or growth inhibition) at 200 ppm in assay [4] not below 80%.

Regarding `CCS(=O)(=O)c1cc(C(F)(F)F)c(-c2ccc(C(F)(F)F)cc2)nc1-c1nc2cc(C(F)(F)F)ncc2n1C` [Compound P4, 2-[3-ethylsulfonyl-5-(trifluoromethyl)-6-[4-(trifluoromethyl)phenyl]-2-pyridyl]-3-methyl-6-(trifluoromethyl)imidazo[4,5-c]pyridine], the percent effect (mortality or growth inhibition) at 200 ppm in [1] and in assay [3] was not below 80% in each case. The percent control (mortality, anti-feedant effect or growth inhibition) at 200 ppm in assay [4] is not below 80%. Besides, the “BP80 Values Diabrotica balteata” value in [8] worked out at 10 ppm.

As for `CCS(=O)(=O)c1cc(C(F)(F)F)c(-c2cccc(C(F)(F)F)c2)nc1-c1nc2cc(C(F)(F)F)ncc2n1C` [Compound P5], the percent effect (mortality or growth inhibition) at 200 ppm in [1] is not below 80%. This compound also registered a percent control (mortality, anti-feedant effect or growth inhibition) at 200 ppm in assay [4] not below 80%. In addition, the “BP80 Values Diabrotica balteata” value in assay [8] is recorded as 10 ppm.

As for `CCS(=O)(=O)c1cc(C(F)(F)F)c(-c2ccccc2Cl)nc1-c1nc2cc(C(F)(F)F)ncc2n1C` [Compound P6], the percent effect (mortality or growth inhibition) at 200 ppm in [1] and in assay [3] was not below 80% throughout. This compound came in with a percent control (mortality, anti-feedant effect or growth inhibition) at 200 ppm in assay [4] not below 80%.

Consider `CCS(=O)(=O)c1ccc(-c2cc(F)cc(F)c2)nc1-c1nc2cc(C(F)(F)F)ncc2n1C` [Compound P8, 2-[6-(3,5-difluorophenyl)-3-ethylsulfonyl-2-pyridyl]-3-methyl-6-(trifluoromethyl)imidazo[4,5-c]pyridine], for which the percent effect (mortality or growth inhibition) at 200 ppm in assay [1], in assay [2] and in assay [3] was not below 80% in each case. Also, in assay [4], the percent control (mortality, anti-feedant effect or growth inhibition) at 200 ppm was not below 80%.

`CCS(=O)(=O)c1ccc(-n2ccc(C(F)(F)F)n2)nc1-c1nc2cc(SC(F)(F)F)ncc2n1C` [Compound P9, 2-[3-ethylsulfonyl-6-[3-(trifluoromethyl)pyrazol-1-yl]-2-pyridyl]-3-methyl-6-(trifluoromethylsulfanyl)imidazo[4,5-c]pyridine]: the mortality at 200 ppm in assay [9] is not below 80%. For the same compound, the percent effect (mortality or growth inhibition) at 200 ppm in assay [1], in [2] and in assay [3] was not below 80% throughout. In addition, the percent control (mortality, anti-feedant effect or growth inhibition) at 200 ppm in assay [4] is not below 80%.

For `CCS(=O)(=O)c1ccc(-n2ccc(Cl)n2)nc1-c1nc2cc(SC(F)(F)F)ncc2n1C` [Compound P11], the percent effect (mortality or growth inhibition) at 200 ppm in [1] and in [3] was not below 80% in each case. This compound displayed a percent control (mortality, anti-feedant effect or growth inhibition) at 200 ppm in assay [4] not below 80%.

In the case of `CCS(=O)(=O)c1ccc(C2CC2)nc1-c1nc2cc(Br)ncc2n1C` [Compound P12, 6-bromo-2-(6-cyclopropyl-3-ethylsulfonyl-2-pyridyl)-3-methyl-imidazo[4,5-c]pyridine], the percent effect (mortality or growth inhibition) at 200 ppm in assay [1] and in assay [3] was not below 80% in each case. The percent control (mortality, anti-feedant effect or growth inhibition) at 200 ppm in assay [4] is not below 80%.

Turning to `CCS(=O)(=O)c1ccc(C2CC2)nc1-c1nc2cc(C(F)(F)F)nnc2n1C` [Compound P14, 6-(6-cyclopropyl-3-ethylsulfonyl-2-pyridyl)-7-methyl-3-(trifluoromethyl)imidazo[4,5-c]pyridazine], the mortality at 200 ppm in assay [9] and in assay [10] was not below 80% throughout. The percent effect (mortality or growth inhibition) at 200 ppm in assay [1], in assay [2] and in assay [3] was not below 80% each time. In assay [4], this compound gave a percent control (mortality, anti-feedant effect or growth inhibition) at 200 ppm not below 80%. The percent effect (mortality, anti-feeding or growth inhibition) at 12.5 ppm in assay [11] was not below 80%.

Consider `CCS(=O)(=O)c1ccc(C2CC2)nc1-c1nc2cc(C(F)(F)F)ncc2n1C` [Compound P15, 2-(6-cyclopropyl-3-ethylsulfonyl-2-pyridyl)-3-methyl-6-(trifluoromethyl)imidazo[4,5-c]pyridine], for which the percent effect (mortality or growth inhibition) at 200 ppm in assay [1], in assay [2] and in assay [3] was not below 80% in each case. Further, in assay [10], the mortality at 200 ppm is not below 80%. Moreover, the percent control (mortality, anti-feedant effect or growth inhibition) at 200 ppm in [4] was not below 80%. Moreover, the percent effect (mortality, anti-feeding or growth inhibition) at 12.5 ppm in [11] is not below 80%.

`CCS(=O)(=O)c1cc(C(F)(F)F)cnc1-c1nc2cc(C(F)(F)F)ncc2n1C` [Compound V12.01, reference compound]: the “BP80 Values Diabrotica balteata” value in [8] is listed as 16 ppm.

For the compound `CCS(=O)(=O)c1cccnc1-c1nc2cc(C(F)(F)F)ncc2n1C` [Compound V12.03, reference compound], the “BP80 Values Diabrotica balteata” value in [5] was found to be 16 ppm. Further, the “BP80 Values Plutella xylostella” value in assay [6] came to 250 ppm. For the same compound, the “BP80 Values Spodoptera littoralis” value in assay [7] was 250 ppm.
